Test results: PubChem BioAssay (NCI)
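Five concentrations, 48 hours, 96-well plates. GI50 is the concentration that inhibits growth by half. At the TGI there is no net growth.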

How the values were obtained:
Test in all cases: inhibition of tumour cell growth, NCI panel, 48 h
[1] = test system: 786-0 renal
[2] = test system: A498 renal
[3] = test system: A549 NSCLC
[4] = test system: ACHN renal
[5] = test system: BT-549 breast
[6] = test system: CAKI-1 renal
[7] = test system: CCRF-CEM leukemia
[8] = test system: DU-145 prostate
[9] = test system: EKVX NSCLC
[10] = test system: HCC-2998 colon
[11] = test system: HCT-116 colon
[12] = test system: HCT-15 colon
[13] = test system: HL-60(TB) leukemia
[14] = test system: HOP-62 NSCLC
[15] = test system: HOP-92 NSCLC
[16] = test system: HS 578T breast
[17] = test system: HT29 colon
[18] = test system: IGROV1 ovarian
[19] = test system: K-562 leukemia
[20] = test system: KM12 colon
[21] = test system: LOX IMVI melanoma
[22] = test system: M14 melanoma
[23] = test system: MALME-3M melanoma
[24] = test system: MCF7 breast
[25] = test system: MDA-MB-231 breast
[26] = test system: MDA-MB-435
[27] = test system: MOLT-4 leukemia
[28] = test system: NCI-H226 lung
[29] = test system: NCI-H23 lung
[30] = test system: NCI-H460 lung
[31] = test system: NCI-H522 lung
[32] = test system: NCI/ADR-RES ovarian
[33] = test system: OVCAR-3 ovarian
[34] = test system: OVCAR-4 ovarian
[35] = test system: OVCAR-5 ovarian
[36] = test system: OVCAR-8 ovarian
[37] = test system: PC-3 prostate
[38] = test system: RPMI-8226 leukemia
[39] = test system: RXF 393 renal
[40] = test system: SF-268 CNS
[41] = test system: SF-539 CNS
[42] = test system: SK-MEL-2 melanoma
[43] = test system: SK-MEL-28 melanoma
[44] = test system: SK-MEL-5 melanoma
[45] = test system: SK-OV-3 ovarian
[46] = test system: SN12C renal
[47] = test system: SNB-19 CNS
[48] = test system: SNB-75 CNS
[49] = test system: SW-620 colon
[50] = test system: TK-10 renal
[51] = test system: U251 CNS
[52] = test system: UACC-257 melanoma
[53] = test system: UACC-62 melanoma
[54] = test system: UO-31 renal

N#C/C(=C\c1ccc2c(c1)OCO2)n1nnc2ccccc21 gave a GI50 [1] of 2010 nM, a TGI [1] of 12900 nM and a GI50 [2] of 1760 nM. The TGI [2] was 5280 nM, the GI50 [3] was 991 nM and the TGI [3] was 48100 nM. It also gave a GI50 [4] of 784 nM, a TGI [4] of 8530 nM and a GI50 [5] of 938 nM. The TGI [5] was 15000 nM, the GI50 [6] was 518 nM and the TGI [6] was 13100 nM. For the same compound, the GI50 [7] was 491 nM, the TGI [7] was greater than 100000 nM and the GI50 [8] was 1900 nM. It also gave a TGI [8] of 13100 nM, a GI50 [9] of 1540 nM and a TGI [9] of 16300 nM. The GI50 [10] was 1860 nM, the TGI [10] was 7230 nM and the GI50 [11] was 439 nM. For the same compound, the TGI [11] was 17400 nM, the GI50 [12] was 395 nM and the TGI [12] was 13800 nM. It also gave a GI50 [13] of 330 nM, a TGI [13] greater than 100000 nM and a GI50 [14] of 2410 nM. For the same compound, the TGI [14] was 14900 nM, the GI50 [15] was 810 nM and the TGI [15] was 3310 nM. The GI50 [16] was 2530 nM, the TGI [16] was 9360 nM and the GI50 [17] was 383 nM. For the same compound, the TGI [17] was greater than 100000 nM, the GI50 [18] was 716 nM and the TGI [18] was 11800 nM. The GI50 [19] was 361 nM, the TGI [19] was greater than 100000 nM and the GI50 [20] was 797 nM. The TGI [20] was greater than 100000 nM, the GI50 [21] was 990 nM and the TGI [21] was 25000 nM. For the same compound, the GI50 [22] was 424 nM, the TGI [22] was 23500 nM and the GI50 [23] was 1400 nM. It also gave a TGI [23] of 23400 nM, a GI50 [24] of 417 nM and a TGI [24] of 14100 nM. It also gave a GI50 [25] of 1700 nM, a TGI [25] of 7730 nM and a GI50 [26] of 200 nM. It also gave a TGI [26] of 501 nM, a GI50 [27] of 2420 nM and a TGI [27] greater than 100000 nM. The GI50 [28] was 2210 nM, the TGI [28] was 16000 nM and the GI50 [29] was 3600 nM. The TGI [29] was 22600 nM, the GI50 [30] was 2860 nM and the TGI [30] was greater than 100000 nM. For the same compound, the GI50 [31] was 270 nM, the TGI [31] was 15200 nM and the GI50 [32] was 405 nM. For the same compound, the TGI [32] was 17200 nM, the GI50 [33] was 357 nM and the TGI [33] was 14300 nM. The GI50 [34] was 1660 nM, the TGI [34] was 20300 nM and the GI50 [35] was 2220 nM. The TGI [35] was 7130 nM, the GI50 [36] was 1760 nM and the TGI [36] was greater than 100000 nM. It also gave a GI50 [37] of 1350 nM, a TGI [37] of 24300 nM and a GI50 [38] of 2190 nM. It also gave a TGI [38] greater than 100000 nM, a GI50 [39] of 986 nM and a TGI [39] of 5310 nM. For the same compound, the GI50 [40] was 3220 nM, the TGI [40] was 20500 nM and the GI50 [41] was 1480 nM. It also gave a TGI [41] of 6270 nM, a GI50 [42] of 1230 nM and a TGI [42] of 26900 nM. The GI50 [43] was 1240 nM, the TGI [43] was 17600 nM and the GI50 [44] was 1620 nM. It also gave a TGI [44] of 12600 nM, a GI50 [45] of 2610 nM and a TGI [45] of 17000 nM. The GI50 [46] was 1320 nM, the TGI [46] was 14800 nM and the GI50 [47] was 1420 nM. It also gave a TGI [47] of 13300 nM, a GI50 [48] of 179 nM and a TGI [48] of 1510 nM. For the same compound, the GI50 [49] was 489 nM, the TGI [49] was greater than 100000 nM and the GI50 [50] was 2200 nM. The TGI [50] was 8550 nM, the GI50 [51] was 1540 nM and the TGI [51] was 21100 nM. It also gave a GI50 [52] of 6680 nM, a TGI [52] of 62400 nM and a GI50 [53] of 450 nM. It also gave a TGI [53] of 18500 nM, a GI50 [54] of 1760 nM and a TGI [54] of 12700 nM.
